Tests used:
Type in all cases: biochemical
ATM = target: T1, ATM (Homo sapiens, UniProt Q13315, Y2755A); test: kinase assay, GST-p53 Ser-15 phosphorylation, Western blot; conditions: H2O2-activated ATM without MRN; analog 1 mM; pH 7.5, 5 mM Mg, 30 C
T1 construct: full-length, Flag-tagged and HA-tagged, transiently expressed in human 293T cells, purified as dimer

[1] = target: T2, MRN (nucleotide site of Rad50) (Homo sapiens, UniProt Q92878); test: ATM kinase assay, inhibition of MRN/DNA-dependent activation; conditions: wild-type ATM, ATP present; pH 7.5, 5 mM Mg, 30 C; site (Rad50 ATP pocket) inferred
T2 construct: full-length Mre11/Rad50/Nbs1 coexpressed in Sf21 insect cells, purified; with Double-strand break repair protein MRE11; Nibrin
T2 sequence (Q92878 1-1312): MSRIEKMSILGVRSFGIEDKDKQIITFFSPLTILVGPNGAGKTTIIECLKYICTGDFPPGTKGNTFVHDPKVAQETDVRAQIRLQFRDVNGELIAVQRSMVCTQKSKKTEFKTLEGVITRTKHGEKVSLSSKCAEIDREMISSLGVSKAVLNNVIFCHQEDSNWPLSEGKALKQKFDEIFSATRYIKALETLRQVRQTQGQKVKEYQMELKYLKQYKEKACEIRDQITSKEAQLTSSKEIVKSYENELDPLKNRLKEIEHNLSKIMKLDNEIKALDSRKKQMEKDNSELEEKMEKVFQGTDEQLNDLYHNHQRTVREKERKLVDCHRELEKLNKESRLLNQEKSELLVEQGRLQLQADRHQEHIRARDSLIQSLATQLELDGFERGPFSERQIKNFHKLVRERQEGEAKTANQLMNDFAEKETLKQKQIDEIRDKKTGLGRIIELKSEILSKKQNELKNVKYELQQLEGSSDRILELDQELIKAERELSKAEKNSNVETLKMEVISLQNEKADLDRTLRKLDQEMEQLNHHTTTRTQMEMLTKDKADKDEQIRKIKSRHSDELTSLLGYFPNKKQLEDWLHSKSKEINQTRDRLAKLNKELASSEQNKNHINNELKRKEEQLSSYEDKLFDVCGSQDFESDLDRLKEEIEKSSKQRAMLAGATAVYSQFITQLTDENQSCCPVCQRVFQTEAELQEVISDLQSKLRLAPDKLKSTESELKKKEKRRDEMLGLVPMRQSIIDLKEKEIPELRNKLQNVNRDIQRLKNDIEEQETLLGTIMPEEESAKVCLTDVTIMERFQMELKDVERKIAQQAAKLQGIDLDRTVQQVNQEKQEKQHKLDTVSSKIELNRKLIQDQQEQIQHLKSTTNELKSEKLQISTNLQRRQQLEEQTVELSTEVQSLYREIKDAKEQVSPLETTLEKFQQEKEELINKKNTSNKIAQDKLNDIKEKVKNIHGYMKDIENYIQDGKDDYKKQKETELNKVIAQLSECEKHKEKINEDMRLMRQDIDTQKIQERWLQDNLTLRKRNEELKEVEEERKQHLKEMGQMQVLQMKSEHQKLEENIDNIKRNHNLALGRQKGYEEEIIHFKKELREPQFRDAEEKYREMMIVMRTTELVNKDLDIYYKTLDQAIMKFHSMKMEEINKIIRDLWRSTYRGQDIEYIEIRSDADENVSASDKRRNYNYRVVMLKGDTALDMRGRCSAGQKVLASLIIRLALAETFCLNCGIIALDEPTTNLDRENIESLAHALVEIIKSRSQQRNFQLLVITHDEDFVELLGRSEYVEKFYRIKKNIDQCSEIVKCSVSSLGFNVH
T2 sequence (P49959 2-708 partner): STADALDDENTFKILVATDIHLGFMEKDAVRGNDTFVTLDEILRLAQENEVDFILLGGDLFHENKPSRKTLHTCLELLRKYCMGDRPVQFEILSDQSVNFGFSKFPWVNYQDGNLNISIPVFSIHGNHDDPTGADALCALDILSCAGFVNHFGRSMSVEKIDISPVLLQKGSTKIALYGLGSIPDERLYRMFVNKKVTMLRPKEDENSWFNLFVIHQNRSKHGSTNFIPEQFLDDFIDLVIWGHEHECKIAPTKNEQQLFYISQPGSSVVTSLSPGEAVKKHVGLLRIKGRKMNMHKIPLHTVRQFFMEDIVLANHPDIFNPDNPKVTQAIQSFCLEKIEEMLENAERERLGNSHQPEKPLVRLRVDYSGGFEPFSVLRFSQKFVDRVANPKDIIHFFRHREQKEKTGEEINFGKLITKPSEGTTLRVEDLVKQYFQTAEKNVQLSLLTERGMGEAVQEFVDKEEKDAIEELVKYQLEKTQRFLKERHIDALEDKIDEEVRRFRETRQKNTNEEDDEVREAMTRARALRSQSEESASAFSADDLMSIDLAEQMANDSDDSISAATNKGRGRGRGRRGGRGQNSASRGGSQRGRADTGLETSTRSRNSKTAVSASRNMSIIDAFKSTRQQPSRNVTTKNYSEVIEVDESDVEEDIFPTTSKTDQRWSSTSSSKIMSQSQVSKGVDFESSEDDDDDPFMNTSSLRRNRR
T2 sequence (O60934 1-754 partner): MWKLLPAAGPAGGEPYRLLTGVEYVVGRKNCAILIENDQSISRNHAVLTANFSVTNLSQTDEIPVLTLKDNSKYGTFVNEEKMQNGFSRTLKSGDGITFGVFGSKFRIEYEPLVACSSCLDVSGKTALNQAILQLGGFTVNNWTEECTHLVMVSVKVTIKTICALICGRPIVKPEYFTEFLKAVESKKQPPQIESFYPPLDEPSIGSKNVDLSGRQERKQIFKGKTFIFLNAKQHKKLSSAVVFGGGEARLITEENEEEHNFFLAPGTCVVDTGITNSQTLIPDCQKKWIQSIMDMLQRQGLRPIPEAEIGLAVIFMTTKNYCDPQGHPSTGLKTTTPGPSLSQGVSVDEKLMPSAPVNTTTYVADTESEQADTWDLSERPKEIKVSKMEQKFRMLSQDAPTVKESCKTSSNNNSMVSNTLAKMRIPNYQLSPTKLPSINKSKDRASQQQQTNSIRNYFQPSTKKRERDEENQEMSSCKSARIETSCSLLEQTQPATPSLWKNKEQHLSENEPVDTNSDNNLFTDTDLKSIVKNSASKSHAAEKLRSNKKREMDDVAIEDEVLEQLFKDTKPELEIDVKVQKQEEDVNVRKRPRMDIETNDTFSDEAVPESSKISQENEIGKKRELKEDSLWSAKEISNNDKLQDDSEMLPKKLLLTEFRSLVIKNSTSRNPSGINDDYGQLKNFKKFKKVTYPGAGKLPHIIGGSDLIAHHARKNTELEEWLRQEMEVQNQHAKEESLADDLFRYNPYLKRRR

[2] = target: T2, MRN (nucleotide site of Rad50); test: ATM kinase assay with analog-sensitive ATM Y2755A; conditions: N6-furfuryl-ATP as ATM nucleotide; MRN/DNA; AMP-PNP supports MRN activation of ATM

T1 sequence (Q13315 2-3056 Y2755A): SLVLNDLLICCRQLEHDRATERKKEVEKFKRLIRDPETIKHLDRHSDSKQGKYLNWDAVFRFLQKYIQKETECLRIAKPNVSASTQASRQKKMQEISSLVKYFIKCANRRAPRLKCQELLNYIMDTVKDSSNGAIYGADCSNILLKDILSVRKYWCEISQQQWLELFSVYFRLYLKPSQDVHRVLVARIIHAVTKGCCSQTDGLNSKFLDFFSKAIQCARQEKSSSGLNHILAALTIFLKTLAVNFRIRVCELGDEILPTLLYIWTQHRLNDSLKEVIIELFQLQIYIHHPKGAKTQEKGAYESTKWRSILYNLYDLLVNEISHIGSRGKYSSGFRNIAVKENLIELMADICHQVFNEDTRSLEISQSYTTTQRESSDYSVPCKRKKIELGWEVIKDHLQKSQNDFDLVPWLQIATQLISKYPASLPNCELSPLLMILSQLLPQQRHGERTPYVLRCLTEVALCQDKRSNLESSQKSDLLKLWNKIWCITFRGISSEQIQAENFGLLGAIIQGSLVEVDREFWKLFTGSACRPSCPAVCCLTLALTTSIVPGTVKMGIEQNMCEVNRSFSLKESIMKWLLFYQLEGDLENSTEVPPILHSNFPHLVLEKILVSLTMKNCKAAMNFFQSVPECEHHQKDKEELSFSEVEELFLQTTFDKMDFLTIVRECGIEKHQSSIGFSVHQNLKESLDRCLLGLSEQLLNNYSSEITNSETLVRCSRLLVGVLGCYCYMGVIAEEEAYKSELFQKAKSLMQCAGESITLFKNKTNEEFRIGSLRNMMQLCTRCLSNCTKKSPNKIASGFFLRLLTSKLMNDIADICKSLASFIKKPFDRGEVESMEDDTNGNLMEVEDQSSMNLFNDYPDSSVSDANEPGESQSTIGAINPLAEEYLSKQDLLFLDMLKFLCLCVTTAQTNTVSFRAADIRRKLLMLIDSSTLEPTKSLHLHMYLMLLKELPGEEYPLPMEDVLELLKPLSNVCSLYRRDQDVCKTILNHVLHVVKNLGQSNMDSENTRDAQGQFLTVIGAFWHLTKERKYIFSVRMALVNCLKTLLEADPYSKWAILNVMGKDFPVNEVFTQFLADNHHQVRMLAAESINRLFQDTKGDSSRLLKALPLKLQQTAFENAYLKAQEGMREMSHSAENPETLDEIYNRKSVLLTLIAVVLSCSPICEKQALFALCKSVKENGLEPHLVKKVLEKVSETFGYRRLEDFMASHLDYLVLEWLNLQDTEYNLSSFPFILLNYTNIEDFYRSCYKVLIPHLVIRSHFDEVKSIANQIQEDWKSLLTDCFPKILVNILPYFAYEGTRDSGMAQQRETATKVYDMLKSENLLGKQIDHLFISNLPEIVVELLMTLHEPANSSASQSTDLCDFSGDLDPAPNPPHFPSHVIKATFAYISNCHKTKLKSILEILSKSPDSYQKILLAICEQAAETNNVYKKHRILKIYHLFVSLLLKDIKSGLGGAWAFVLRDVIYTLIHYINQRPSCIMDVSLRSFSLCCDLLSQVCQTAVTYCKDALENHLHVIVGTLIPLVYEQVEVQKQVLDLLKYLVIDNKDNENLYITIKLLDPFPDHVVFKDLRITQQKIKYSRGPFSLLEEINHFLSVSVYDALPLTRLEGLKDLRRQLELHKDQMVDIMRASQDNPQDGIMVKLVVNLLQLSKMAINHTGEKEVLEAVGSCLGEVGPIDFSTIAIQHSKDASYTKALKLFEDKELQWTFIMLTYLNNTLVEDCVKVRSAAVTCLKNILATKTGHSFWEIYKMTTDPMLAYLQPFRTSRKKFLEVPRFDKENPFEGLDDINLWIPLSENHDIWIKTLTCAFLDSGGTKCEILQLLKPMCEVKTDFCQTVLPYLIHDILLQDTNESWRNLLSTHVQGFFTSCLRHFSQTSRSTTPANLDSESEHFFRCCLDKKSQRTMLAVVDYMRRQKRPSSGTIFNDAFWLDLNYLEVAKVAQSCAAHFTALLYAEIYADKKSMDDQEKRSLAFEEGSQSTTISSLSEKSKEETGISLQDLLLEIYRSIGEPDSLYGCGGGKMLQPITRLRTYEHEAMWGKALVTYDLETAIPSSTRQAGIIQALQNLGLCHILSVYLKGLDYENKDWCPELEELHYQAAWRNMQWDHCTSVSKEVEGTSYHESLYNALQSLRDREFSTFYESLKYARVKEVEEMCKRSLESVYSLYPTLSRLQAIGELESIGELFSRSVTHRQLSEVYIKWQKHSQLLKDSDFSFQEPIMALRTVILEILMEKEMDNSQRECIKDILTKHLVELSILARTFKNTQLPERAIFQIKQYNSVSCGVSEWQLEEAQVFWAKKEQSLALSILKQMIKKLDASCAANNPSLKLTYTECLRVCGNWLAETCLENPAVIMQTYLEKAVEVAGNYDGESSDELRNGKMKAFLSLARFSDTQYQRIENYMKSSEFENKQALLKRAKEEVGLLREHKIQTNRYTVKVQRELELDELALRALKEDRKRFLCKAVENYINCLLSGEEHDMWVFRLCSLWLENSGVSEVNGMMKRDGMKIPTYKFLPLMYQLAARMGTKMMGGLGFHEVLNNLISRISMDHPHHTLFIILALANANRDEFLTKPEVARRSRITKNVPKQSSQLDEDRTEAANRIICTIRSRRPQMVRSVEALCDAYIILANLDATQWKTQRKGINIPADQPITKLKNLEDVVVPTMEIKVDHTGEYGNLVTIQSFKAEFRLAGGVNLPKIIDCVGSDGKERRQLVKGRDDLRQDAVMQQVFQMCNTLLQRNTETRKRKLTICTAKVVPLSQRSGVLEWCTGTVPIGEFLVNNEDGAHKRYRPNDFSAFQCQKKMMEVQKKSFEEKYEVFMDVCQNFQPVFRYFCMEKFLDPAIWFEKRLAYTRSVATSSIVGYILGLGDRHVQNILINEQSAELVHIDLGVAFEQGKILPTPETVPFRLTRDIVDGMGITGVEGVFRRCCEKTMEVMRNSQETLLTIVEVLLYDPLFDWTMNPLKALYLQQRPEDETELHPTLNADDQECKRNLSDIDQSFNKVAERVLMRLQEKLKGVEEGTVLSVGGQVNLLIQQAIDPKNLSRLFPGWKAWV

CCCC(C)Nc1ncnc2c1ncn2[C@@H]1O[C@H](COP(=O)(O)OP(=O)(O)OP(=O)(O)O)[C@@H](O)[C@H]1O (stereo partly drawn) [N6-(1-methylbutyl)-ATP, N6-(1-methylbutyl)adenosine-5′-O-triphosphate]
kinase assay, GST-p53 Ser-15 phosphorylation, Western blot (ATM): N6-(1-methylbutyl)-ATP was utilized by the Y2755A mutant ATM
ATM kinase assay, inhibition of MRN/DNA-dependent activation [1]: N6-(1-methylbutyl)-ATP inhibited the activation of wild-type ATM by MRN/DNA

Nc1ncnc2c1ncn2[C@@H]1O[C@H](COP(=O)(O)OP(=O)(O)NP(=O)(O)O)[C@@H](O)[C@H]1O [AMP-PNP, adenosine 5′-(β,γ-imino)triphosphate]
ATM kinase assay with analog-sensitive ATM Y2755A [2]: Y2755A ATM phosphorylated p53 in the presence of MRN/DNA, N6-(furfuryl)-ATP, and AMP-PNP
